Experimental findings from article PMC5084695 (Biochemistry, 2016) are described below.

Experiment [1] addresses SbnA (Staphylococcus aureus, UniProt A6QDA0). Briefly: coupled inorganic phosphate release assay. Type of experiment: biochemical.
Experiment [2] addresses SbnA (Staphylococcus aureus, UniProt A6QDA0, S185G). Briefly: biochemical.
Experiment [3] has as its target SbnA (Staphylococcus aureus, UniProt A6QDA0, S185G/Y152F). Briefly: biochemical.

Take `N[C@@H](CS)C(=O)O` [L-cysteine]: the inhibition constant (Ki) is 91 ± 16 µM on SbnA [1] and 2100 ± 500 µM on SbnA [2]. In addition, the Kd on SbnA [3] was 8900 ± 3200 µM.
